Common to all, as to format: physicochemical
A short description of data set [1]: Δn (refractive index anisotropy) measurement, wedge-shaped liquid crystal cell. The note with it: at 550 nm and 30° C.; for compounds liable to crystallize, estimated from extrapolated values of mixtures with other liquid crystals. The text has this:
As a method of measuring the Δn, a method using a wedge-shaped liquid crystal cell described on page 202 of the Liquid Crystal Handbook (edited by Liquid Crystal Handbook Editing Committee, published by Maruzen Co., Ltd.) is generally used. In a case of a compound which is liable to crystallize, it is also possible to carry out evaluation with a mixture thereof with other liquid crystals and to estimate Δn from extrapolated values thereof.
The Δn corresponds to a measured value at a wavelength of 550 nm at 30° C.
Δn of each of the compounds was measured by a method using a wedge-shaped liquid crystal cell described on page 202 of the Liquid Crystal Handbook (edited by Liquid Crystal Handbook Editing Committee, published by Maruzen Co., Ltd.). In a case of the compound which is liable to crystallize, evaluation with a mixture thereof with other liquid crystals was carried out and Δn was estimated from extrapolated values thereof. The values in the table represent Δn's at 550 nm and 30° C.

A short description of data set [2]: Evaluation of light resistance (residual rate after ultraviolet irradiation). Conditions: 5 mg in acetonitrile (20 ml), 1 cm quartz cell, ultraviolet light 3 J/cm^2; residual rate by liquid chromatography. As for the experimental part: Each (5 mg) of the compounds was dissolved in acetonitrile (20 ml), sealed in a 1 cm quartz cell, and the quartz cell was irradiated with ultraviolet light under a condition of 3 J/cm^2 using EXECURE 3000-W manufactured by HOYA-SCHOTT CORPORATION, so that a residual rate of each compound was measured. Amounts (masses) of each compound before and after light irradiation were calculated using liquid chromatography. In Table 1, “A” represents a residual rate of equal to or greater than 80%, “B” represents a residual rate of equal to or greater than 50% and less than 80%, and “C” represents a residual rate of less than 50%.
The residual rate is a ratio of an amount (mass) of a compound after light irradiation to an amount (mass) of the compound before light irradiation, and can be calculated by the following expression. Residual rate (%)=(amount of compound after light irradiation/amount of compound before light irradiation)×100

A short description of data set [3]: Solubility measurement in ethyl methyl ketone. The note with it: concentration in ethyl methyl ketone solution where the compound was completely dissolved. As for the experimental part:
Ethyl methyl ketone was added dropwise to each of the compounds, and a concentration (% by mass) of the compound in the obtained ethyl methyl ketone solution in a case where the compound was completely dissolved in the solution was measured as “solubility”. It is intended that a higher numerical value of solubility indicates excellent solubility in ethyl methyl ketone.

Consider nine compounds from patent publication US11603350B2, “Compound, composition, cured object, optically anisotropic body, and reflective film” (FUJIFILM Corporation, priority 2016, dated 2023).

As to `C=CC(=O)OCCCCOc1ccc(C(=O)Oc2ccc(C#Cc3ccc(CCCCCCC)cc3)cc2)cc1` [Compound b-1, reference compound], the Δn in data set [1] is listed as 0.220. Also, the Light resistance evaluation entry in data set [2] is “C (a residual rate of less than 50%)”.
In data set [3], `C=CC(=O)OCCCCOc1ccc(C#Cc2ccc(C(=O)Nc3ccc(C#Cc4ccc(OCCCCOC(=O)C=C)cc4)cc3C(F)(F)F)cc2)cc1` [Compound a-8] returned a Solubility of 22 % by mass. Besides, the Δn in data set [1] is 0.370. For the same compound, the Light resistance evaluation result in data set [2] is “A (a residual rate of equal to or greater than 80%)”.
`C=CC(=O)OCCCCOc1ccc(C#Cc2ccc(NC(=O)c3ccc(OCCCCOC(=O)C=C)cc3)c(C)c2)cc1` [Compound a-2] displayed a Solubility in data set [3] of 23 % by mass. In data set [1], the Δn was 0.280. Moreover, the Light resistance evaluation result in data set [2] is on record as “A (a residual rate of equal to or greater than 80%)”.
Compound `C=CC(=O)OCCCCOc1ccc(C#Cc2ccc(NC(=O)c3ccc(OCCCCOC(=O)C=C)cc3)cc2)cc1` [Compound a-1] showed a Solubility in data set [3] of 5 % by mass. Moreover, the Δn in data set [1] was 0.289. Moreover, in data set [2], the Light resistance evaluation entry was “A (a residual rate of equal to or greater than 80%)”.
Taken in the same sequence, the figures for `C=CC(=O)OCCCCOc1ccc(C#Cc2ccc(NC(=O)c3ccc(OCCCCOC(=O)C=C)cc3)c(C(F)(F)F)c2)cc1` [Compound a-6] were 38 % by mass, 0.287 and “A (a residual rate of equal to or greater than 80%)”.
In the same order, the values of `C=CC(=O)OCCCCOc1ccc(C#Cc2ccc(NC(=O)c3ccc(OCCCCOC(=O)C=C)cc3)c(F)c2)cc1` [Compound a-5] are 11 % by mass, 0.278 and “A (a residual rate of equal to or greater than 80%)”.
`C=CC(=O)OCCCCOc1ccc(C#Cc2ccc(NC(=O)c3ccc(OCCCCOC(=O)C=C)cc3)c(OC)c2)cc1` [Compound a-4] gave a Solubility in data set [3] of 20 % by mass. The Δn in data set [1] is 0.301. The Light resistance evaluation result in data set [2] is “A (a residual rate of equal to or greater than 80%)”.
The compound `C=CC(=O)OCCCCOc1ccc(C#Cc2ccc(NC(=O)c3ccc(OCCCCOC(=O)C=C)cc3)cc2C)cc1` [Compound a-3] yielded a Solubility in data set [3] of 19 % by mass. Besides, the Δn in data set [1] is listed as 0.282. The Light resistance evaluation result in data set [2] was “A (a residual rate of equal to or greater than 80%)”.
In the same order, the values of `C=CC(=O)OCCCCOc1ccc(C(=O)Nc2ccc(C#Cc3ccc4nc(SCCCCOC(=O)C=C)sc4c3)cc2C(F)(F)F)cc1` [Compound a-7] are 22 % by mass, 0.304 and “A (a residual rate of equal to or greater than 80%)”.
